Measurements from paper PMC11672750, “PfGSTF2 endows resistance to quizalofop‐p‐ethyl in Polypogon fugax by GSH conjugation” (Plant Biotechnology Journal, 2024).

Test system: PfGSTF58
Assay: absorbance at […] nm, Michaelis-Menten fit
Format: biochemical, Polypogon fugax
Details: GSH co-substrate; 30 °C

O=[N+]([O-])c1ccc(Cl)c([N+](=O)[O-])c1 [1-chloro-2,4-dinitrobenzene]
Km: 450 ± 90 µM
